Source: PubChem BioAssay (NCI)
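96-well plates; 48 h exposure; 5 concentrations. Endpoints by linear interpolation between flanking doses. Not reached: highest tested concentration assigned. GI50: concentration for 50% inhibition of growth. TGI marks complete inhibition of growth.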

What was measured:
Assay in all cases: growth of human tumour cells (NCI), 48 h
786-0 renal = system: 786-0 renal
A498 renal = system: A498 renal
A549 NSCLC = system: A549 NSCLC
ACHN renal = system: ACHN renal
BT-549 breast = system: BT-549 breast
CAKI-1 renal = system: CAKI-1 renal
CCRF-CEM leukemia = system: CCRF-CEM leukemia
COLO 205 colon = system: COLO 205 colon
DU-145 prostate = system: DU-145 prostate
EKVX NSCLC = system: EKVX NSCLC
HCC-2998 colon = system: HCC-2998 colon
HCT-116 colon = system: HCT-116 colon
HCT-15 colon = system: HCT-15 colon
HL-60(TB) leukemia = system: HL-60(TB) leukemia
HOP-62 NSCLC = system: HOP-62 NSCLC
HOP-92 NSCLC = system: HOP-92 NSCLC
HS 578T breast = system: HS 578T breast
HT29 colon = system: HT29 colon
IGROV1 ovarian = system: IGROV1 ovarian
KM12 colon = system: KM12 colon
LOX IMVI melanoma = system: LOX IMVI melanoma
M14 melanoma = system: M14 melanoma
MALME-3M melanoma = system: MALME-3M melanoma
MCF7 breast = system: MCF7 breast
MDA-MB-231 breast = system: MDA-MB-231 breast
MDA-MB-435 = system: MDA-MB-435
MOLT-4 leukemia = system: MOLT-4 leukemia
NCI-H226 lung = system: NCI-H226 lung
NCI-H23 lung = system: NCI-H23 lung
NCI-H460 lung = system: NCI-H460 lung
NCI-H522 lung = system: NCI-H522 lung
NCI/ADR-RES ovarian = system: NCI/ADR-RES ovarian
OVCAR-3 ovarian = system: OVCAR-3 ovarian
OVCAR-4 ovarian = system: OVCAR-4 ovarian
OVCAR-5 ovarian = system: OVCAR-5 ovarian
OVCAR-8 ovarian = system: OVCAR-8 ovarian
PC-3 prostate = system: PC-3 prostate
RPMI-8226 leukemia = system: RPMI-8226 leukemia
RXF 393 renal = system: RXF 393 renal
SF-268 CNS = system: SF-268 CNS
SF-295 CNS = system: SF-295 CNS
SF-539 CNS = system: SF-539 CNS
SK-MEL-2 melanoma = system: SK-MEL-2 melanoma
SK-MEL-28 melanoma = system: SK-MEL-28 melanoma
SK-MEL-5 melanoma = system: SK-MEL-5 melanoma
SK-OV-3 ovarian = system: SK-OV-3 ovarian
SN12C renal = system: SN12C renal
SNB-19 CNS = system: SNB-19 CNS
SNB-75 CNS = system: SNB-75 CNS
SR leukemia = system: SR leukemia
SW-620 colon = system: SW-620 colon
T-47D breast = system: T-47D breast
TK-10 renal = system: TK-10 renal
U251 CNS = system: U251 CNS
UACC-257 melanoma = system: UACC-257 melanoma
UACC-62 melanoma = system: UACC-62 melanoma
UO-31 renal = system: UO-31 renal

SMILES: O=C1c2c(c3c4ccccc4n(CCCCCCN4CCOCC4)c3c3[nH]c4ccccc4c23)C(=O)N1O
- GI50 (786-0 renal): 1.96 µM
- TGI (786-0 renal): 5.43 µM
- GI50 (A498 renal): 9.15 µM
- TGI (A498 renal): 25.4 µM
- GI50 (A549 NSCLC): 39.8 µM
- TGI (A549 NSCLC): > 100 µM
- GI50 (ACHN renal): 4.14 µM
- GI50 (BT-549 breast): 17.9 µM
- TGI (BT-549 breast): 46.9 µM
- GI50 (CAKI-1 renal): 8.98 µM
- TGI (CAKI-1 renal): 28.9 µM
- GI50 (CCRF-CEM leukemia): 2.25 µM
- TGI (CCRF-CEM leukemia): 8.35 µM
- GI50 (COLO 205 colon): 4.74 µM
- TGI (COLO 205 colon): 21.9 µM
- GI50 (DU-145 prostate): 11.5 µM
- TGI (DU-145 prostate): > 100 µM
- GI50 (EKVX NSCLC): > 43.1 µM
- TGI (EKVX NSCLC): > 82.5 µM
- GI50 (HCC-2998 colon): 9.6 µM
- TGI (HCC-2998 colon): 32.1 µM
- GI50 (HCT-116 colon): 1.85 µM
- TGI (HCT-116 colon): 3.86 µM
- GI50 (HCT-15 colon): 3.03 µM
- TGI (HCT-15 colon): 12.2 µM
- GI50 (HL-60(TB) leukemia): 2.49 µM
- TGI (HL-60(TB) leukemia): 8.22 µM
- GI50 (HOP-62 NSCLC): 18.2 µM
- TGI (HOP-62 NSCLC): 55.2 µM
- GI50 (HOP-92 NSCLC): 13.2 µM
- TGI (HOP-92 NSCLC): 38.3 µM
- GI50 (HS 578T breast): 2.07 µM
- TGI (HS 578T breast): 6.61 µM
- GI50 (HT29 colon): 3.39 µM
- TGI (HT29 colon): 18.1 µM
- GI50 (IGROV1 ovarian): 3.76 µM
- TGI (IGROV1 ovarian): 49.3 µM
- GI50 (KM12 colon): 7.01 µM
- TGI (KM12 colon): 57.7 µM
- GI50 (LOX IMVI melanoma): 0.21 µM
- TGI (LOX IMVI melanoma): 0.736 µM
- GI50 (M14 melanoma): 4.02 µM
- TGI (M14 melanoma): 30.7 µM
- GI50 (MALME-3M melanoma): 1.74 µM
- TGI (MALME-3M melanoma): 3.76 µM
- GI50 (MCF7 breast): 2.07 µM
- TGI (MCF7 breast): 7.73 µM
- GI50 (MDA-MB-231 breast): 2.17 µM
- TGI (MDA-MB-231 breast): 7.76 µM
- GI50 (MDA-MB-435): 3.72 µM
- TGI (MDA-MB-435): 20.1 µM
- GI50 (MOLT-4 leukemia): 1.79 µM
- TGI (MOLT-4 leukemia): 4.63 µM
- GI50 (NCI-H226 lung): > 32.5 µM
- TGI (NCI-H226 lung): > 80.4 µM
- GI50 (NCI-H23 lung): 15.8 µM
- TGI (NCI-H23 lung): 45.9 µM
- GI50 (NCI-H460 lung): 1.81 µM
- TGI (NCI-H460 lung): 3.66 µM
- GI50 (NCI-H522 lung): 1.58 µM
- TGI (NCI-H522 lung): 4.15 µM
- GI50 (NCI/ADR-RES ovarian): > 69.8 µM
- TGI (NCI/ADR-RES ovarian): > 100 µM
- GI50 (OVCAR-3 ovarian): 16.3 µM
- TGI (OVCAR-3 ovarian): 33.8 µM
- GI50 (OVCAR-4 ovarian): 4.44 µM
- TGI (OVCAR-4 ovarian): 20.7 µM
- GI50 (OVCAR-5 ovarian): > 49.3 µM
- TGI (OVCAR-5 ovarian): > 75.8 µM
- GI50 (OVCAR-8 ovarian): 2.44 µM
- TGI (OVCAR-8 ovarian): 9.39 µM
- GI50 (PC-3 prostate): 12.1 µM
- TGI (PC-3 prostate): > 57 µM
- GI50 (RPMI-8226 leukemia): 2.57 µM
- TGI (RPMI-8226 leukemia): 7.76 µM
- GI50 (RXF 393 renal): 7.61 µM
- TGI (RXF 393 renal): 25.9 µM
- GI50 (SF-268 CNS): 15.8 µM
- TGI (SF-268 CNS): 39.4 µM
- GI50 (SF-295 CNS): 16.8 µM
- TGI (SF-295 CNS): 35.7 µM
- GI50 (SF-539 CNS): 1.9 µM
- TGI (SF-539 CNS): 4.03 µM
- GI50 (SK-MEL-2 melanoma): 19.5 µM
- TGI (SK-MEL-2 melanoma): 46 µM
- GI50 (SK-MEL-28 melanoma): 1.96 µM
- TGI (SK-MEL-28 melanoma): 4.02 µM
- GI50 (SK-MEL-5 melanoma): 4.22 µM
- TGI (SK-MEL-5 melanoma): 20 µM
- GI50 (SK-OV-3 ovarian): 20.6 µM
- TGI (SK-OV-3 ovarian): 43.2 µM
- GI50 (SN12C renal): 6.86 µM
- TGI (SN12C renal): 26.4 µM
- GI50 (SNB-19 CNS): 10.4 µM
- TGI (SNB-19 CNS): > 100 µM
- GI50 (SNB-75 CNS): 1.36 µM
- TGI (SNB-75 CNS): 7.57 µM
- GI50 (SR leukemia): 0.291 µM
- TGI (SR leukemia): 1.08 µM
- GI50 (SW-620 colon): 1.68 µM
- TGI (SW-620 colon): 3.93 µM
- GI50 (T-47D breast): 18.7 µM
- TGI (T-47D breast): > 94.6 µM
- GI50 (TK-10 renal): 26.2 µM
- TGI (TK-10 renal): 54.8 µM
- GI50 (U251 CNS): 1.68 µM
- TGI (U251 CNS): 3.22 µM
- GI50 (UACC-257 melanoma): 24.5 µM
- TGI (UACC-257 melanoma): 56.6 µM
- GI50 (UACC-62 melanoma): 1.91 µM
- TGI (UACC-62 melanoma): 4.62 µM
- GI50 (UO-31 renal): 1.25 µM
- TGI (UO-31 renal): 3.11 µM
